Assay [1] is described as follows: cells. The class given is functional, cell-based.
A short description of assay [2]: cells. The class given is functional, cell-based. This is another data set of the same source.
Another assay deals with Genome polyprotein (dengue virus type 2, UniProt P29990). Description: flavivirus cap methylation enzyme inhibition – biochemical, confirmation dose response, primary screen (AID 588689). The class given is functional.
Assay [3] is described as follows: cells. The class given is functional, cell-based. The source holds these as a separate data set.
Assay [4] can be described thus: cells. It counts as functional, cell-based. This is another data set of the same source.
The target of assay [5] is T1, Apoptotic protease-activating factor 1 (Homo sapiens, UniProt O14727).
T1 sequence (O14727 whole entry): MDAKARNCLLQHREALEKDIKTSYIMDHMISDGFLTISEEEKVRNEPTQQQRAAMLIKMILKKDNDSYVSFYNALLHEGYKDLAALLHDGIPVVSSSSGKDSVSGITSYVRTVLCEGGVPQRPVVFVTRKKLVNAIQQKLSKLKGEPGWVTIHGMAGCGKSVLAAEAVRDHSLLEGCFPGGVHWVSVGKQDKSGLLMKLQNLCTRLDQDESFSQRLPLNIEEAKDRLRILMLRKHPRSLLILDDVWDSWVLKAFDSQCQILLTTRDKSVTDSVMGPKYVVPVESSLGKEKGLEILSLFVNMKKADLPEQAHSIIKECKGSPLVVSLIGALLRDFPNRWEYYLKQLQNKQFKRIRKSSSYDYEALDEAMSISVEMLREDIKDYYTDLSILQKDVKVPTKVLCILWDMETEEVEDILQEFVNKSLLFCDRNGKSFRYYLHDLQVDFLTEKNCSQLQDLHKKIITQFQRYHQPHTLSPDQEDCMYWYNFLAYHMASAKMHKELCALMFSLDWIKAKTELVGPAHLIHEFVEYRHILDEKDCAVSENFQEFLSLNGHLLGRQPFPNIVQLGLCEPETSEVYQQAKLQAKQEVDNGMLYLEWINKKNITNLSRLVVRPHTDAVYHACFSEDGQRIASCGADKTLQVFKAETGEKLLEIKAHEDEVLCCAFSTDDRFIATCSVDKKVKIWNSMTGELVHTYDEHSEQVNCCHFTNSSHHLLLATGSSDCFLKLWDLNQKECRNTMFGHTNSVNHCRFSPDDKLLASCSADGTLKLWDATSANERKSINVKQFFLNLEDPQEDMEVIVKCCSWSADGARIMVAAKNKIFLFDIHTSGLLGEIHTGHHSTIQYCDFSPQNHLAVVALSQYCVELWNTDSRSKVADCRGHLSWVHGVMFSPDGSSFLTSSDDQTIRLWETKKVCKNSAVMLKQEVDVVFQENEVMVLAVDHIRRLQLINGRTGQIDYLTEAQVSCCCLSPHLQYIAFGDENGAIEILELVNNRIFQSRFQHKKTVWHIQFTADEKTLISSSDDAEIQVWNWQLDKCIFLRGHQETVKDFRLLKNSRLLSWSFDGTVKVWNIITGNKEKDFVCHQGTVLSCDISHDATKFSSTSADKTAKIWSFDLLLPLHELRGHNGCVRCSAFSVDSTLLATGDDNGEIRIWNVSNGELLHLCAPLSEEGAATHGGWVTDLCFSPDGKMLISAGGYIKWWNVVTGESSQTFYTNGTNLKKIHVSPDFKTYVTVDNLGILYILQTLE
It counts as functional.

The target of assay [6] is T2, Mannose-6-phosphate isomerase (Homo sapiens, UniProt P34949).
T2 sequence (P34949 whole entry): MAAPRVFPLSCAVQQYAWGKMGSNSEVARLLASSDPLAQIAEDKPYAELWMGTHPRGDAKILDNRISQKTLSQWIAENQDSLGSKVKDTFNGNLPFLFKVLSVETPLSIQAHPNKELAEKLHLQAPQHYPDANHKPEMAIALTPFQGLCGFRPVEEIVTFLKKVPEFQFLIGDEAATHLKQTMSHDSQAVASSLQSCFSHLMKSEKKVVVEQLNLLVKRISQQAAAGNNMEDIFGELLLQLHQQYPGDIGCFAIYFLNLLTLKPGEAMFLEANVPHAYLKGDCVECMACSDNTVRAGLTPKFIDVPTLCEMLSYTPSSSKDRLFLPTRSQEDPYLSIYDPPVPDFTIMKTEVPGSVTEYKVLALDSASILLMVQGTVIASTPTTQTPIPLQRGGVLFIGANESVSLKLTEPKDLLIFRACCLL
In words: MPI inhibition at elevated mannose 6-phosphate – biochemical, fluorescence intensity, high mannose 6-phosphate, primary screen (AID 1220).

Another assay has as its target T3, Caspase-6 (Homo sapiens, UniProt P55212).
T3 sequence (P55212 whole entry): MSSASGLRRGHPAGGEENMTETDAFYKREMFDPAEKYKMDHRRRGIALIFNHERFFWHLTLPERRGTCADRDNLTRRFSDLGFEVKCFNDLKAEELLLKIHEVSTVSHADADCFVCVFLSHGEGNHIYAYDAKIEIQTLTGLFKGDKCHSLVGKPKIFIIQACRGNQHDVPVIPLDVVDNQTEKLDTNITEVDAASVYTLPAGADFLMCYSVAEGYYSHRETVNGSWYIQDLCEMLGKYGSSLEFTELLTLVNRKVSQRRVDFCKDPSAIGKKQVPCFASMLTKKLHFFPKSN
In words: inhibition of CASP6 peptide cleavage – biochemical, VEID-R110 fluorescence, cherry-pick, dose response (AID 720632).

The target of the next assay is Large T antigen (Simian virus 40, UniProt P03070). The class given is functional, Betapolyomavirus macacae.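 Further: Confirmatory-stage PubChem screen for compounds that inhibit SV40 T antigen.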
Assay [7] concerns the target T4, Carboxy-terminal domain RNA polymerase II polypeptide A small phosphatase 1 (Homo sapiens, UniProt Q9GZU7).
T4 sequence (Q9GZU7 whole entry): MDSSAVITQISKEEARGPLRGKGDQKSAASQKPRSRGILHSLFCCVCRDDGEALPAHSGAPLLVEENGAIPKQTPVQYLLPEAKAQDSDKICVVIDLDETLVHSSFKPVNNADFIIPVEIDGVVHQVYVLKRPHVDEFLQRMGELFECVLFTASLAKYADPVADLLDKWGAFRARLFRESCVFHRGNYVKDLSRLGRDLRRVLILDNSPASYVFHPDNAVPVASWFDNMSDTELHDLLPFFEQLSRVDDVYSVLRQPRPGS
In words: CTDSP1 inhibitors, concentration-response, biochemical, absorbance readout, ultra-high-throughput screen actives (AID 540297). The class given is functional.

Assay [8] concerns the target T5, RNA-binding protein pos-1 (Caenorhabditis elegans, UniProt G5EF15).
T5 sequence (G5EF15 whole entry): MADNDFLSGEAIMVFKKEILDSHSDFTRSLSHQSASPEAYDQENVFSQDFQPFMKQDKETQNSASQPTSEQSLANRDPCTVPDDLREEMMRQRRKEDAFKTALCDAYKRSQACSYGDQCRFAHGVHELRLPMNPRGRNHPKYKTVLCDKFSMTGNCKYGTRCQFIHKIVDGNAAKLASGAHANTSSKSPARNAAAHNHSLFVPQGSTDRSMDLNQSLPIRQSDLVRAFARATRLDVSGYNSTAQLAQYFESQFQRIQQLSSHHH
In words: disruptors of C. elegans POS-1 RNA interaction – biochemical, fluorescence polarization, dose response (AID 1964).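 Further: purified POS-1 fused to maltose binding protein made in E. coli; potency of compounds blocking POS-1 binding to fluorescent RNA.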 Background: In fluorescence polarisation assays a small probe gives low polarisation when free and higher when bound to something large.

The target in assay [9] is T6, Zinc finger protein mex-5 (Caenorhabditis elegans, UniProt Q9XUB2).
T6 sequence (Q9XUB2 whole entry): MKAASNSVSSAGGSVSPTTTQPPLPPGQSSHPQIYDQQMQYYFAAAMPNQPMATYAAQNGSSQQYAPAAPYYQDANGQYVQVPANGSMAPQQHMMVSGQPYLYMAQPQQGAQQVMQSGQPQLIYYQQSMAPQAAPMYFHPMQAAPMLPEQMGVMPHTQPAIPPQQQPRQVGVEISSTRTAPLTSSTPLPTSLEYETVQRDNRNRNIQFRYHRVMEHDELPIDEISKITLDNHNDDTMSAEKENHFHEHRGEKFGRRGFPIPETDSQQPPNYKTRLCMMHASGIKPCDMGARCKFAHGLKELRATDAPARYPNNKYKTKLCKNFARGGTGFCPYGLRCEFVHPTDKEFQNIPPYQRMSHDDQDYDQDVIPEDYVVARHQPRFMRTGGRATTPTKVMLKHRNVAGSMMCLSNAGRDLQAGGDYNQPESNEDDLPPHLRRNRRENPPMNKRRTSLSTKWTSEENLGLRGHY
Description: potency of MEX-5 RNA-binding blockers – biochemical, C. elegans, fluorescence polarization, dose response (AID 1960).

The target of assay [10] is Peroxisome proliferator-activated receptor gamma/Nuclear receptor coactivator 1 (Homo sapiens, UniProt P37231). Description: TR-FRET dose response biochemical High Throughput Screening assay for agonists of the steroid receptor coactivator 1 (SRC-1) recruitment by the peroxisome proliferator-activated receptor gamma (PPAR gamma): non-selective agonists. [Related pubchem assays (depositor defined):AID1300, AID1808, AID504735, AID631]. The class given is protein assay. In general terms: TR-FRET usually uses a lanthanide donor and a delayed reading to cut background.

Assay [11] deals with Peroxisome proliferator-activated receptor gamma/Nuclear receptor coactivator 3 (Homo sapiens, UniProt P37231). Description: TR-FRET dose response biochemical High Throughput Screening assay for agonists of the steroid receptor coactivator 3 (SRC-3) recruitment by the peroxisome proliferator-activated receptor gamma (PPAR gamma): non-selective agonists. [Related pubchem assays: 1301 (Confirmation screen.), 1048 (Primary screen.)]. It counts as functional.

The target in assay [12] is Peroxisome proliferator-activated receptor gamma/Nuclear receptor coactivator 2 (Homo sapiens, UniProt P37231). Description: TR-FRET dose response biochemical High Throughput Screening assay for agonists of the steroid receptor coactivator 2 (SRC-2) recruitment by the peroxisome proliferator-activated receptor gamma (PPAR gamma): non-selective agonists. [Related pubchem assays: 1297, 1032 ]. It counts as functional.

By IC50 is commonly meant the concentration at which inhibition is half-maximal. The EC50 is the concentration at which the effect is half-maximal. The AC50 is the midpoint of the concentration-response curve, whichever way the signal moves.

The source made the active and inactive calls. Some results are limits rather than exact numbers.

Chain of Peroxisome proliferator-activated receptor gamma/Nuclear receptor coactivator 2 (P37231 whole entry): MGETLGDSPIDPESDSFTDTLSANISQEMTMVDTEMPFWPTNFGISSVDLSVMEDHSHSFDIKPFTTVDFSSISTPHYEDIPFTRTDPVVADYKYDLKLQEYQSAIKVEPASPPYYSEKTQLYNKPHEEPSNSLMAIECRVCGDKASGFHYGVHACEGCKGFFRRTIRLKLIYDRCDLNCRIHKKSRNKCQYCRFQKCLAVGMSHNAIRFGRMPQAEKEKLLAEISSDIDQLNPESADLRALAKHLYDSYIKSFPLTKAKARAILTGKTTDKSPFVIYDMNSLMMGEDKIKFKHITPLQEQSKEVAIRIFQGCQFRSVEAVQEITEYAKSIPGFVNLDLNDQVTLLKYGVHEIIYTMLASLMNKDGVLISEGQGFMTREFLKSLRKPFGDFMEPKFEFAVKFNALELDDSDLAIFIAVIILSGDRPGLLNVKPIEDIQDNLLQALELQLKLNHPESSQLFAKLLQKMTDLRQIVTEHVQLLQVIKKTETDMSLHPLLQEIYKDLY
Chain of Peroxisome proliferator-activated receptor gamma/Nuclear receptor coactivator 2 (Q15596 whole entry, further chain): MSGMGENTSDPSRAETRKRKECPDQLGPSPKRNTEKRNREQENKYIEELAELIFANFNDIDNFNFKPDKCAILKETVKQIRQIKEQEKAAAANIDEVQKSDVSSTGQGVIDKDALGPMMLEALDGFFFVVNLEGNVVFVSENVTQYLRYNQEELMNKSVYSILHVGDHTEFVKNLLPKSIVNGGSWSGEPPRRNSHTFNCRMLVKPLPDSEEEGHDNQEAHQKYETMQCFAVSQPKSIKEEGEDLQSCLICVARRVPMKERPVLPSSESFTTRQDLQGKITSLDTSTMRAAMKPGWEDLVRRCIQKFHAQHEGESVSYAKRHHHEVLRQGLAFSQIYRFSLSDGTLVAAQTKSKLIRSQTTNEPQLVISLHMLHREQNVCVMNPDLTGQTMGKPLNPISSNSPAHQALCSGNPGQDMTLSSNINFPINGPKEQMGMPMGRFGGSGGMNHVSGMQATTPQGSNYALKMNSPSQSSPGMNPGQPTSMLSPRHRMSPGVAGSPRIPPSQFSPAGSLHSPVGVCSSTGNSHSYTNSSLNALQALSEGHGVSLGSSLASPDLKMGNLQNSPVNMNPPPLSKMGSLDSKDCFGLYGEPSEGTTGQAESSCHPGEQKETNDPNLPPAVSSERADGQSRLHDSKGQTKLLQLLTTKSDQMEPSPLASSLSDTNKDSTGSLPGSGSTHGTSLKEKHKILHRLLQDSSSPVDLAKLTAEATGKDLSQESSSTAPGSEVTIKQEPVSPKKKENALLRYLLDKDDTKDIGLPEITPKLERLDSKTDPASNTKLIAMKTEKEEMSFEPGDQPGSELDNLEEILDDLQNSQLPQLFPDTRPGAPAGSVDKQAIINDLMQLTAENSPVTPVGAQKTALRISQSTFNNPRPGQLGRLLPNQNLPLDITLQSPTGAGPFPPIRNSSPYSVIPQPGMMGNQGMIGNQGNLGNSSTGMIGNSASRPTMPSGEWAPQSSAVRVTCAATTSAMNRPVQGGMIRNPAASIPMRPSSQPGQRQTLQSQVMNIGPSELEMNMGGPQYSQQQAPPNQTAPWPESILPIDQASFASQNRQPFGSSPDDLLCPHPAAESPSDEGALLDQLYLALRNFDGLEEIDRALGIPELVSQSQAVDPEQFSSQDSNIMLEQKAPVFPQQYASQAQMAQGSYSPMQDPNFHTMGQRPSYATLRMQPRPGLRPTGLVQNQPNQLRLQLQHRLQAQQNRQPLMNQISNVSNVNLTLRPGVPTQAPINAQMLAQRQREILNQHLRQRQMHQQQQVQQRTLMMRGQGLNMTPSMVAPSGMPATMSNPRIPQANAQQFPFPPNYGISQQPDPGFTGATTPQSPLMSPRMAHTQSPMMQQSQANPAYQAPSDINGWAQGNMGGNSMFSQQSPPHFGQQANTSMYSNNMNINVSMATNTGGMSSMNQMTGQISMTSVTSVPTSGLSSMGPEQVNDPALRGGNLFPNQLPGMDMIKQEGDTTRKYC
Chain of Peroxisome proliferator-activated receptor gamma/Nuclear receptor coactivator 1 (P37231 whole entry): as the sequence (P37231 whole entry) above
Chain of Peroxisome proliferator-activated receptor gamma/Nuclear receptor coactivator 1 (Q15788 whole entry, further chain): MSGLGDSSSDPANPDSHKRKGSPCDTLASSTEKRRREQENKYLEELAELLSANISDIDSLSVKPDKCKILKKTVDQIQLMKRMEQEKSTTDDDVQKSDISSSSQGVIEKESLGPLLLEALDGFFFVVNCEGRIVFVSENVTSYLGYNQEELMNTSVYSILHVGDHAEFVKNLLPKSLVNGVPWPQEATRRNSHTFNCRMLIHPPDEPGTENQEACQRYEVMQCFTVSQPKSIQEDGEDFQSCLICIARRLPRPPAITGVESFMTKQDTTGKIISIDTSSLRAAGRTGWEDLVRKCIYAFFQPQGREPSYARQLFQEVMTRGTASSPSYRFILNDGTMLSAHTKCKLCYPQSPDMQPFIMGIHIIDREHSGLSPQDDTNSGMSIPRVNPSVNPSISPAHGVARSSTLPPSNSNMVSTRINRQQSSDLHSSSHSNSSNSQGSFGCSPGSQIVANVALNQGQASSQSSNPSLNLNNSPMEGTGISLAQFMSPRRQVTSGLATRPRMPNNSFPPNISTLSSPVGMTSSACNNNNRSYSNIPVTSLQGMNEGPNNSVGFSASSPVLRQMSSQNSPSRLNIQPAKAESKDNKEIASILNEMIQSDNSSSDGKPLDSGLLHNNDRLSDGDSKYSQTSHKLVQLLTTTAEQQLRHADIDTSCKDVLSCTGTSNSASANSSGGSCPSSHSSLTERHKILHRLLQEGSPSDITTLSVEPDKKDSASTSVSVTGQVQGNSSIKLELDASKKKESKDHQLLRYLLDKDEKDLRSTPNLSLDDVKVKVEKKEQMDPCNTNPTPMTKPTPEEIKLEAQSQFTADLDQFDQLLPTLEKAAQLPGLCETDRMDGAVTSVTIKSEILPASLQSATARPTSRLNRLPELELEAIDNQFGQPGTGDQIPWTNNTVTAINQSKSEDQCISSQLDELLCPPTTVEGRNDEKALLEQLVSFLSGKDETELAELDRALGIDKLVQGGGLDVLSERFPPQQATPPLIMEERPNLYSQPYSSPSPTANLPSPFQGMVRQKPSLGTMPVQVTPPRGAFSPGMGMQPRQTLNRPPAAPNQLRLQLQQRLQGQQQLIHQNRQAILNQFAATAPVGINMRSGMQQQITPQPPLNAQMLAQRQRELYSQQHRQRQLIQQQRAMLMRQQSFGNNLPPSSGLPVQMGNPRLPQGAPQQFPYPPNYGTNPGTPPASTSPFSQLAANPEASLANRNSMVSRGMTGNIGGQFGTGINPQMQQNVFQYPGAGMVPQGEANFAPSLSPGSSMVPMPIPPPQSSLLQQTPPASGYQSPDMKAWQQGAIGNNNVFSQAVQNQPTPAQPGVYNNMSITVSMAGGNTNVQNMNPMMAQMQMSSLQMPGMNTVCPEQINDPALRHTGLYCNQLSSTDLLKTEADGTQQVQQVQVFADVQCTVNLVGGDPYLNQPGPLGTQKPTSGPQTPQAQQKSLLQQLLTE
Chain of Large T antigen (P03070 whole entry, the tested form may be a part): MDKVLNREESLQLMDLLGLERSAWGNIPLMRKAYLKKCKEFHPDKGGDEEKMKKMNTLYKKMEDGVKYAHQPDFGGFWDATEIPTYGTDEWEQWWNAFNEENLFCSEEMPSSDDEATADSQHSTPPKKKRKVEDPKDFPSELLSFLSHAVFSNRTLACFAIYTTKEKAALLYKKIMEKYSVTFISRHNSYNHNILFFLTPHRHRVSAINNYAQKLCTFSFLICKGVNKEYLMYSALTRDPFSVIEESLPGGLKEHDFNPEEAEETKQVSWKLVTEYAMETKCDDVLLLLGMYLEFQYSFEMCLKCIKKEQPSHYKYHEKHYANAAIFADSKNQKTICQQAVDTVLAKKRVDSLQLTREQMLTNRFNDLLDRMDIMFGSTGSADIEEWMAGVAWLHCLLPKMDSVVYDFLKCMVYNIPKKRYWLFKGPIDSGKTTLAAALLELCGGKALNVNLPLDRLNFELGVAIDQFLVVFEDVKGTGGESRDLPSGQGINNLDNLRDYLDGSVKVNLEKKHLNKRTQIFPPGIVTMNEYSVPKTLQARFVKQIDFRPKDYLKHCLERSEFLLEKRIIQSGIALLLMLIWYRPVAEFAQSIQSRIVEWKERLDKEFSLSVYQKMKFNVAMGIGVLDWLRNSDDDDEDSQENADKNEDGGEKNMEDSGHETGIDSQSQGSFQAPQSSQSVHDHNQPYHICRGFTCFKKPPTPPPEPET

Turning to `Oc1ccc(/C=N/CC2COc3ccccc3O2)cc1` (configuration not stated), the IC50 in “cells [1]” is > 29.9 µM (inactive). The EC50 in the assay “cells [2]” was > 29.9 µM (inactive).

Take `Cc1ccc(CSc2nnc3c(n2)OC2(Nc4ccccc4-3)C(=O)Nc3ccc(F)cc32)cc1` (configuration not stated): the IC50 on Genome polyprotein is 25 µM (active).

For the compound `CC1CCN(S(=O)(=O)c2ccc3c4c2CC(=O)N4CC(C)S3)CC1` (configuration not stated), the EC50 in “cells [3]” and in “cells [4]” was > 350 µM (not active) each time. Further, in [5], the IC50 was 3.64 µM (active).

As for `O=C(CSc1ccc(-c2ccccn2)nn1)c1ccc(F)cc1`, the 50% inhibitory concentration (IC50) in [6] is > 50 µM (not active).

For the compound `O=C(COc1ccc(F)cc1)NNC(=O)c1cc2ccccc2oc1=O`, the IC50 in “cells [1]” is > 29.9 µM (inactive). Moreover, the EC50 in the assay “cells [2]” is > 29.9 µM (inactive).

With `CCCCNS(=O)(=O)c1cc(-c2nn(C)c(=O)c3ccccc23)ccc1C`, at Caspase-6, the AC50 is 21.3 µM (active).

For `N=C1/C(=C/c2ccc(Br)o2)C(=O)N=C2SC(CC(=O)N3CCCC3)=NN12`, the IC50 at Large T antigen was 58.3 µM (active); in assay [7] it was > 80 µM (inactive).

As to `C/C(=N\Nc1ccc(Cl)c(C(=O)O)c1)c1ccc[nH]1`, the EC50 in assay [8] is given as > 300 µM (not active); in [9], > 150 µM (not active). Also, the IC50 in assay [7] is 4.28 µM (active).

Consider `CC(=C1C(=O)c2ccccc2C1=O)N1CCc2ccccc2C1`, for which, in “cells [1]”, the IC50 was > 29.9 µM (inactive). The EC50 in the assay “cells [2]” was > 29.9 µM (inactive).

With `Cn1c(=O)cc(SCC(=O)NCC2CCCO2)c2ccccc21` (configuration not stated), the values for the EC50 in assay [10], in [11] and in assay [12] were > 79.4 µM (inactive), > 79.4 µM (not active) and > 79.4 µM (not active), respectively.

Regarding `O=C(Nc1ccccc1F)c1coc(=O)c(Br)c1`, the EC50 in [8] and in assay [9] was > 300 µM (not active) in each case. In addition, the AC50 at Caspase-6 is 23.8 µM (active).

Turning to `COc1ccc(C(=O)C2=C(O)C(=O)N(c3cc(C)on3)C2c2ccccc2OC)cc1` (configuration not stated), the EC50 in [10] was 22.9 µM (inactive); in assay [11], > 79.4 µM (not active); in [12] it was 18.2 µM (not active).

Consider `O=C(Cn1cnc2c(nnn2-c2cccc(Cl)c2)c1=O)NCc1ccccc1`, for which the IC50 in assay [7] was 8.16 µM (active).

Turning to `CCOc1ccccc1-c1nnc(S)o1`, the EC50 in assay [10] was > 2.94 µM (inactive); in assay [11], > 79.4 µM (not active); in assay [12], 35.6 µM (not active).

`O=C(CSc1nc2sc3c(c2c(=O)n1-c1ccccc1)CCCC3)N/N=C/c1ccc(C(=O)O)cc1`: in assay [7], the IC50 was 25.9 µM (active).

`C[C@H](O)[C@@H]1C(=O)N2CCc3c([nH]c4ccccc34)[C@@H]2C[C@@H]1N(C)C(=O)Nc1cccc2ccccc12`: the concentration at half-maximal activity (AC50) on Caspase-6 is 35.9 µM (active).

(Values after ChEMBL document CHEMBL1201862, “PubChem BioAssay data set” (2004).)
